The record followed here is patent US12139520B2 (priority 2020, dated 2024).

Bridge positions count the residues as written; N and C are the ends. Square brackets hold non-standard residues; d marks the D form. Peptide text beside a SMILES is read from it. Hyp = O=C(O)[C@@H]1C[C@@H](O)CN1

For one series, the target named is T1, hAMY3 receptor (Homo sapiens, UniProt O60896+P30988).
T1 sequence (P30988 25-474): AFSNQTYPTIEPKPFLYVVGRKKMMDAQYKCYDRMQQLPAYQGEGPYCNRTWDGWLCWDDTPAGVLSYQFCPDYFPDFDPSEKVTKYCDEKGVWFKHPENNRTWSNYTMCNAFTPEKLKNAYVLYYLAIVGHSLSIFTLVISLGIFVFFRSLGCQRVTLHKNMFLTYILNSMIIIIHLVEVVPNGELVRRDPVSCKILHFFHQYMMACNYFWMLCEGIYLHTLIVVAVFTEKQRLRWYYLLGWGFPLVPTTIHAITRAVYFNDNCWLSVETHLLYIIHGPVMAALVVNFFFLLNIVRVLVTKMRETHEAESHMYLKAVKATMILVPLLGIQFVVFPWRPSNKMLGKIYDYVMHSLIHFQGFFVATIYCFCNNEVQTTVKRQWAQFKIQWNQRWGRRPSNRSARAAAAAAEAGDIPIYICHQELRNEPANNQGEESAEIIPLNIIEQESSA
T1 sequence (O60896 24-148 partner): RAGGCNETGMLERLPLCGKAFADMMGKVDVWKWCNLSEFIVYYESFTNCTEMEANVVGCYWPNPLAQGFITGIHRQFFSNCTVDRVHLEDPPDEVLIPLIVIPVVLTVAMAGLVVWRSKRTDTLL
Description: cAMP assay for in vitro receptor activation, hAMY3-R. The format is cell-based. To be noted: cAMP assay, hAMY3 receptor; read-out: hAMY3R EC50. Summed up: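 Monoclonal cell line stably overexpressing hAMY3 receptor, plated in DPBS with 0.05% casein and 0.5 mM IBMX, was stimulated with graded compound doses for 30 min at room temperature. cAMP accumulation was read by time-resolved FRET one hour after adding detection reagents.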

Series [1] in a line: Physical stability of peptide analogues (Thioflavin T fibrillation). Type of series: physicochemical. To be noted: maximum ThT signal normalized between hAMY maximum and buffer background; 40° C., shaking, four days; pH 7 per table title. Summed up:
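ThT fluorescence (450 nm excitation, 480 nm emission; 4 μM dye) was read every 10 min over four days at 40° C under 700 rpm shaking stress, after 1 h in pH 4 acetate or pH 7 phosphate (50 mM). Peak smoothed signal expressed as percent, scaled between buffer background and hAMY maximum.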

Take `CC[C@H](C)[C@H](NC(=O)[C@H](CCC(N)=O)NC(=O)[C@H](Cc1c[nH]cn1)NC(=O)[C@H](C)NC(=O)[C@H](CC(C)C)NC(=O)[C@H](CCCNC(=N)N)NC(=O)[C@H](CCC(N)=O)NC(=O)[C@@H](NC(=O)[C@@H](NC(=O)[C@@H]1CSSC[C@H](NC(=O)CN)C(=O)N[C@@H](CCCNC(=N)N)C(=O)N[C@@H](Cc2ccccc2)C(=O)NCC(=O)N[C@@H]([C@@H](C)O)C(=O)N1)[C@@H](C)O)C(C)C)C(=O)N[C@@H](Cc1ccc(O)cc1)C(=O)N[C@@H](CCC(N)=O)C(=O)N[C@@H](Cc1ccccc1)C(=O)N[C@H](C(=O)N[C@@H](CC(=O)O)C(=O)N[C@@H](CCCCN)C(=O)N[C@@H](CC(=O)O)C(=O)N[C@@H](CCCCN)C(=O)N[C@@H](CC(=O)O)C(=O)N[C@@H](CC(N)=O)C(=O)N[C@H](C(=O)N[C@@H](C)C(=O)N1CCC[C@H]1C(=O)N[C@@H](CCCNC(=N)N)C(=O)N[C@H](C(=O)N[C@@H](CCCCN)C(=O)N[C@H](C(=O)N[C@@H](CO)C(=O)N1CCC[C@H]1C(=O)N[C@@H](CCC(N)=O)C(=O)NCC(=O)N1C[C@H](O)C[C@H]1C(N)=O)C(C)C)[C@@H](C)O)C(C)C)[C@@H](C)O` [compound 132] (H-GCRFGTCTVQRLAHQIYQFTDKDKDNVAPRTKVSPQG[Hyp]-NH2; disulfide 2-7; N-terminus assumed): the EC50 – broadly, the concentration at which the effect is half-maximal – at hAMY3 receptor came to 0.031 nM. Also, the “Max ThT signal (%)” value in series [1] is 5.200%.

`CC[C@H](C)[C@H](NC(=O)[C@H](CCC(N)=O)NC(=O)[C@H](Cc1c[nH]cn1)NC(=O)[C@H](C)NC(=O)[C@H](CC(C)C)NC(=O)[C@H](CCCNC(=N)N)NC(=O)[C@H](CCC(N)=O)NC(=O)[C@@H](NC(=O)[C@@H](NC(=O)[C@@H]1CSSC[C@H](NC(=O)CN)C(=O)N[C@@H](CCCNC(=N)N)C(=O)N[C@@H](Cc2ccccc2)C(=O)NCC(=O)N[C@@H]([C@@H](C)O)C(=O)N1)[C@@H](C)O)C(C)C)C(=O)N[C@@H](Cc1ccc(O)cc1)C(=O)N[C@@H](CCC(N)=O)C(=O)N[C@@H](Cc1ccccc1)C(=O)N[C@H](C(=O)N[C@@H](CC(=O)O)C(=O)N[C@@H](CCCCN)C(=O)N[C@@H](CC(=O)O)C(=O)N[C@@H](CCCCN)C(=O)N[C@@H](CC(=O)O)C(=O)N[C@@H](CC(N)=O)C(=O)N[C@H](C(=O)N[C@@H](C)C(=O)N1CCC[C@H]1C(=O)N[C@@H](CCCNC(=N)N)C(=O)N[C@H](C(=O)N[C@@H](CCCCN)C(=O)N[C@H](C(=O)N[C@@H](CO)C(=O)N1CCC[C@H]1C(=O)N[C@@H](CC(N)=O)C(=O)NCC(=O)N1C[C@H](O)C[C@H]1C(N)=O)C(C)C)[C@@H](C)O)C(C)C)[C@@H](C)O` [compound 134] (H-GCRFGTCTVQRLAHQIYQFTDKDKDNVAPRTKVSPNG[Hyp]-NH2; disulfide 2-7; N-terminus assumed): the EC50 at hAMY3 receptor was found to be 0.032 nM. For the same molecule, the “Max ThT signal (%)” value in series [1] amounted to 17.400%.

`CC[C@H](C)[C@H](NC(=O)[C@H](CCC(N)=O)NC(=O)[C@H](Cc1c[nH]cn1)NC(=O)[C@H](C)NC(=O)[C@H](CC(C)C)NC(=O)[C@H](CCCNC(=N)N)NC(=O)[C@H](CCC(N)=O)NC(=O)[C@@H](NC(=O)[C@@H](NC(=O)[C@@H]1CSSC[C@H](NC(=O)CN)C(=O)N[C@@H](CCCNC(=N)N)C(=O)N[C@@H](Cc2ccccc2)C(=O)NCC(=O)N[C@@H]([C@@H](C)O)C(=O)N1)[C@@H](C)O)C(C)C)C(=O)N[C@@H](Cc1ccc(O)cc1)C(=O)N[C@@H](CCC(N)=O)C(=O)N[C@@H](Cc1ccccc1)C(=O)N[C@H](C(=O)N[C@@H](CC(=O)O)C(=O)N[C@@H](CCCCN)C(=O)N[C@@H](CC(=O)O)C(=O)N[C@@H](CCCCN)C(=O)N[C@@H](CC(=O)O)C(=O)N[C@@H](CC(N)=O)C(=O)N[C@H](C(=O)N[C@@H](C)C(=O)N1CCC[C@H]1C(=O)N[C@@H](CCCNC(=N)N)C(=O)N[C@@H](CO)C(=O)N[C@@H](CC(N)=O)C(=O)N[C@H](C(=O)NCC(=O)N1CCC[C@H]1C(=O)N[C@@H](CCC(N)=O)C(=O)NCC(=O)N1C[C@H](O)C[C@H]1C(N)=O)C(C)C)C(C)C)[C@@H](C)O` [compound 135] (H-GCRFGTCTVQRLAHQIYQFTDKDKDNVAPRSNVGPQG[Hyp]-NH2; disulfide 2-7; N-terminus assumed): on hAMY3 receptor, the EC50 came to 0.033 nM. In addition, in series [1], the “Max ThT signal (%)” value was 3.300%.

As to `CC[C@H](C)[C@H](NC(=O)[C@H](CCC(N)=O)NC(=O)[C@H](Cc1c[nH]cn1)NC(=O)[C@H](C)NC(=O)[C@H](CC(C)C)NC(=O)[C@H](CCCNC(=N)N)NC(=O)[C@H](CCC(N)=O)NC(=O)[C@@H](NC(=O)[C@@H](NC(=O)[C@@H]1CSSC[C@H](NC(=O)CN)C(=O)N[C@@H](CCCNC(=N)N)C(=O)N[C@@H]([C@@H](C)O)C(=O)NCC(=O)N[C@@H]([C@@H](C)O)C(=O)N1)[C@@H](C)O)C(C)C)C(=O)N[C@@H](Cc1ccc(O)cc1)C(=O)N[C@@H](CCC(N)=O)C(=O)N[C@@H](Cc1ccccc1)C(=O)N[C@H](C(=O)N[C@@H](CC(=O)O)C(=O)N[C@@H](CCCCN)C(=O)N[C@@H](CC(=O)O)C(=O)N[C@@H](CCCCN)C(=O)N[C@@H](CC(=O)O)C(=O)N[C@@H](CC(N)=O)C(=O)N[C@H](C(=O)N[C@@H](C)C(=O)N1CCC[C@H]1C(=O)N[C@@H](CCCNC(=N)N)C(=O)N[C@@H](CO)C(=O)N[C@@H](CC(N)=O)C(=O)N[C@H](C(=O)NCC(=O)N1CCC[C@H]1C(=O)N[C@@H](CCC(N)=O)C(=O)NCC(=O)N[C@@H](Cc1ccc(O)cc1)C(N)=O)C(C)C)C(C)C)[C@@H](C)O` [compound 138] (H-GCRTGTCTVQRLAHQIYQFTDKDKDNVAPRSNVGPQGY-NH2; disulfide 2-7; N-terminus assumed), the EC50 on hAMY3 receptor was determined as 0.035 nM. Further, in series [1], the “Max ThT signal (%)” value is listed as 6.800%.

Regarding `CC[C@H](C)[C@H](NC(=O)[C@H](CCC(N)=O)NC(=O)[C@H](Cc1c[nH]cn1)NC(=O)[C@H](C)NC(=O)[C@H](CC(C)C)NC(=O)[C@H](CCCNC(=N)N)NC(=O)[C@H](CCC(N)=O)NC(=O)[C@@H](NC(=O)[C@@H](NC(=O)[C@@H]1CSSC[C@H](NC(=O)CN)C(=O)N[C@@H](CCCNC(=N)N)C(=O)N[C@@H]([C@@H](C)O)C(=O)NCC(=O)N[C@@H]([C@@H](C)O)C(=O)N1)[C@@H](C)O)C(C)C)C(=O)N[C@@H](Cc1ccc(O)cc1)C(=O)N[C@@H](CCC(N)=O)C(=O)N[C@@H](Cc1ccccc1)C(=O)N[C@H](C(=O)N[C@@H](CC(=O)O)C(=O)N[C@@H](CCCCN)C(=O)N[C@@H](CC(=O)O)C(=O)N[C@@H](CCCCN)C(=O)N[C@@H](CC(=O)O)C(=O)N[C@@H](CC(N)=O)C(=O)N[C@H](C(=O)N[C@@H](C)C(=O)N1CCC[C@H]1C(=O)N[C@@H](CCCNC(=N)N)C(=O)N[C@@H](CO)C(=O)N[C@@H](CCCCN)C(=O)N[C@H](C(=O)NCC(=O)N1CCC[C@H]1C(=O)N[C@@H](CC(N)=O)C(=O)NCC(=O)N1C[C@H](O)C[C@H]1C(N)=O)C(C)C)C(C)C)[C@@H](C)O` [compound 139] (H-GCRTGTCTVQRLAHQIYQFTDKDKDNVAPRSKVGPNG[Hyp]-NH2; disulfide 2-7; N-terminus assumed), the EC50 on hAMY3 receptor was 0.035 nM. The “Max ThT signal (%)” value in series [1] came out at 4.800%.

For the molecule `CC[C@H](C)[C@H](NC(=O)[C@H](CCC(N)=O)NC(=O)[C@H](Cc1c[nH]cn1)NC(=O)[C@H](C)NC(=O)[C@H](CC(C)C)NC(=O)[C@H](CCCNC(=N)N)NC(=O)[C@H](CCC(N)=O)NC(=O)[C@@H](NC(=O)[C@@H](NC(=O)[C@@H]1CSSC[C@H](NC(=O)CN)C(=O)N[C@@H](CCCNC(=N)N)C(=O)N[C@@H](Cc2ccccc2)C(=O)NCC(=O)N[C@@H]([C@@H](C)O)C(=O)N1)[C@@H](C)O)C(C)C)C(=O)N[C@@H](Cc1ccc(O)cc1)C(=O)N[C@@H](CCC(N)=O)C(=O)N[C@@H](Cc1ccccc1)C(=O)N[C@H](C(=O)N[C@@H](CC(=O)O)C(=O)N[C@@H](CCCCN)C(=O)N[C@@H](CC(=O)O)C(=O)N[C@@H](CCCCN)C(=O)N[C@@H](CC(=O)O)C(=O)N[C@@H](CC(N)=O)C(=O)N[C@H](C(=O)N[C@@H](C)C(=O)N1CCC[C@H]1C(=O)N[C@@H](CCCNC(=N)N)C(=O)N[C@H](C(=O)N[C@@H](CC(N)=O)C(=O)N[C@H](C(=O)N[C@@H](CO)C(=O)N1CCC[C@H]1C(=O)N[C@@H](CCC(N)=O)C(=O)NCC(=O)N[C@@H](Cc1ccc(O)cc1)C(N)=O)[C@@H](C)CC)[C@@H](C)O)C(C)C)[C@@H](C)O` [compound 140] (H-GCRFGTCTVQRLAHQIYQFTDKDKDNVAPRTNISPQGY-NH2; disulfide 2-7; N-terminus assumed), the concentration giving a half-maximal response (EC50) at hAMY3 receptor was 0.036 nM. Also, the “Max ThT signal (%)” value in series [1] stood at 3.100%.
